Measured values reported in patent publication US20260053932A1, “COMPOUNDS AND METHODS FOR THE TARGETED DEGRADATION OF ANDROGEN RECEPTOR AND ASSOCIATED METHODS OF USE” (Arvinas Operations, Inc., priority 2020, published 2026).

Tested on: androgen receptor (AR) in LNCaP and/or VCaP cells
Test: Androgen Receptor ELISA assay (AR degradation)
Type: cell-based
Conditions: LNCaP and/or VCaP cells; 5 hours incubation; media with R1881; read-out: DC50 Code* (degradation of AR ELISA)
Procedure, shortened: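 VCaP cells grown ≥3 days, then treated 5 h with compound in media containing 1 nM R1881 (10× stock). Cells lysed and AR quantified by sandwich ELISA (mouse AR detection Ab, HRP anti-mouse, TMB). DC50 and Dmax derived from AR degradation.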

SMILES	DC50 [nM]
COc1cc(O[C@H]2CC[C@H](NC(=O)c3cnc(N4CC(CN(C(C)C)[C@H]5C[C@H](Oc6ccc7c(c6)C(=O)N(C6CCC(=O)NC6=O)C7=O)C5)C4)nc3)CC2)ccc1C#N (stereo partly drawn) [Compound 57, N-((1r,4r)-4-(4-cyano-3-methoxyphenoxy)cyclohexyl)-2-(3-((((1r,3r)-3-((2-(2,6-dioxopiperidin-3-yl)-1,3-dioxoisoindolin-5-yl)oxy)cyclobutyl) (isopropyl)amino)methyl)azetidin-1-yl)pyrimidine-5-carboxamide]	< 1
CC(C)N(CC1CCN(c2ncc(C(=O)NC3CCC(Oc4ccc(C#N)c(Cl)c4)CC3)cn2)CC1)C1CCC(Oc2ccc3c(c2)C(=O)N(C2CCC(=O)NC2=O)C3=O)CC1 (stereo not drawn) [Compound 59, N-((1r,4r)-4-(3-chloro-4-cyanophenoxy)cyclohexyl)-2-(4-((((1r,4r)-4-((2-(2,6-dioxopiperidin-3-yl)-1,3-dioxoisoindolin-5-yl)oxy)cyclohexyl) (isopropyl)amino)methyl)piperidin-1-yl)pyrimidine-5-carboxamide]	< 1
CC(C)N(CC1CCN(c2ncc(C(=O)N[C@H]3CC[C@H](Oc4ccc(C#N)c(Cl)c4)CC3)cn2)CC1)[C@H]1C[C@H](Oc2ccc3c(c2)C(=O)N(C2CCC(=O)NC2=O)C3)C1 (stereo partly drawn) [Compound 60, N-((1r,4r)-4-(3-chloro-4-cyanophenoxy)cyclohexyl)-2-(4-((((1r,3r)-3-((2-(2,6-dioxopiperidin-3-yl)-3-oxoisoindolin-5-yl)oxy)cyclobutyl) (isopropyl)amino)methyl)piperidin-1-yl)pyrimidine-5-carboxamide]	< 1
COc1cc(O[C@H]2CC[C@H](NC(=O)c3cnc(N4CCC(CN(C(C)C)[C@H]5C[C@H](Oc6ccc7c(c6)C(=O)N(C6CCC(=O)NC6=O)C7)C5)CC4)nc3)CC2)ccc1C#N (stereo partly drawn) [Compound 63, N-((1r,4r)-4-(4-cyano-3-methoxyphenoxy)cyclohexyl)-2-(4-((((1r,3r)-3-((2-(2,6-dioxopiperidin-3-yl)-3-oxoisoindolin-5-yl)oxy)cyclobutyl) (isopropyl)amino)methyl)piperidin-1-yl)pyrimidine-5-carboxamide]	< 1
CC(C)N(CC1CCN(c2cnc(C(=O)N[C@H]3CC[C@H](Oc4ccc(C#N)c(Cl)c4)CC3)cn2)CC1)[C@H]1C[C@H](Oc2ccc3c(c2)C2(CC2)N(C2CCC(=O)NC2=O)C3=O)C1 (stereo partly drawn) [Compound 65, N-((1r,4r)-4-(3-chloro-4-cyanophenoxy)cyclohexyl)-5-(4-((((1r,3r)-3-((2′-(2,6-dioxopiperidin-3-yl)-3′-oxospiro[cyclopropane-1,1′-isoindolin]-6′-yl)oxy)cyclobutyl) (isopropyl)amino)methyl)piperidin-1-yl)pyrazine-2-carboxamide]	< 1
CC(C)N(CC1CN(c2ncc(C(=O)N[C@H]3CC[C@H](Oc4ccc(C#N)c(Cl)c4)CC3)cn2)C1)[C@H]1C[C@H](Oc2ccc3c(c2)C(=O)N(C2CCC(=O)NC2=O)C3=O)C1 (stereo partly drawn) [Compound 66, N-((1r,4r)-4-(3-chloro-4-cyanophenoxy)cyclohexyl)-2-(3-((((1r,3r)-3-((2-(2,6-dioxopiperidin-3-yl)-1,3-dioxoisoindolin-5-yl)oxy)cyclobutyl) (isopropyl)amino)methyl)azetidin-1-yl)pyrimidine-5-carboxamide]	< 1
CC1(N2C(=O)c3cc(F)c(N4CCN(CC5CCN(c6ccc(C(=O)N[C@H]7CC[C@H](Oc8ccc(C#N)c(Cl)c8)CC7)nn6)CC5)CC4)cc3C2=O)CCC(=O)NC1=O (stereo partly drawn) [Compound 69, N-((1r,4r)-4-(3-chloro-4-cyanophenoxy)cyclohexyl)-6-(4-((4-(6-fluoro-2-(3-methyl-2,6-dioxopiperidin-3-yl)-1,3-dioxoisoindolin-5-yl)piperazin-1-yl)methyl)piperidin-1-yl)pyridazine-3-carboxamide]	< 1
CCOc1cc(O[C@H]2CC[C@H](NC(=O)c3cnc(N4CC(CN(C(C)C)[C@H]5C[C@H](Oc6ccc7c(c6)C(=O)N(C6CCC(=O)NC6=O)C7=O)C5)C4)nc3)CC2)ccc1C#N (stereo partly drawn) [Compound 70, N-((1r,4r)-4-(4-cyano-3-ethoxyphenoxy)cyclohexyl)-2-(3-((((1r,3r)-3-((2-(2,6-dioxopiperidin-3-yl)-1,3-dioxoisoindolin-5-yl)oxy)cyclobutyl) (isopropyl)amino)methyl)azetidin-1-yl)pyrimidine-5-carboxamide]	1 to 10
N#Cc1ccc(O[C@H]2CC[C@H](NC(=O)c3ccn(C4CCC(CN5CCN(c6ccc7c(c6)CN(C6CCC(=O)NC6=O)C7=O)CC5)CC4)n3)CC2)cc1Cl (stereo partly drawn) [Compound 71, N-((1r,4r)-4-(3-chloro-4-cyanophenoxy)cyclohexyl)-1-(4-((4-(2-(2,6-dioxopiperidin-3-yl)-1-oxoisoindolin-5-yl)piperazin-1-yl)methyl)cyclohexyl)-1H-pyrazole-3-carboxamide]	1 to 10

Other lines, results leading:

DC50 [nM]	SMILES
< 1	CC(C)N(CC1CCN(c2cnc(C(=O)N[C@H]3CC[C@H](Oc4ccc(C#N)c(Cl)c4)CC3)cn2)CC1)[C@H]1C[C@H](Oc2ccc3c(c2F)C(=O)N(C2CCC(=O)NC2=O)C3=O)C1 (stereo partly drawn) [Compound 52, N-((1r,4r)-4-(3-chloro-4-cyanophenoxy)cyclohexyl)-5-(4-((((1r,3r)-3-((2-(2,6-dioxopiperidin-3-yl)-4-fluoro-1,3-dioxoisoindolin-5-yl)oxy)cyclobutyl) (isopropyl)amino)methyl)piperidin-1-yl)pyrazine-2-carboxamide]
< 1	N#Cc1ccc(O[C@H]2CC[C@H](NC(=O)c3cnc(N4CCC(CN(CC5COC5)[C@H]5C[C@H](Oc6ccc7c(c6)C(=O)N(C6CCC(=O)NC6=O)C7=O)C5)CC4)cn3)CC2)cc1Cl (stereo partly drawn) [Compound 53, N-((1r,4r)-4-(3-chloro-4-cyanophenoxy)cyclohexyl)-5-(4-((((1r,3r)-3-((2-(2,6-dioxopiperidin-3-yl)-1,3-dioxoisoindolin-5-yl)oxy)cyclobutyl) (oxetan-3-ylmethyl)amino)methyl)piperidin-1-yl)pyrazine-2-carboxamide]
< 1	COCC(C)N(CC1CCN(c2cnc(C(=O)N[C@H]3CC[C@H](Oc4ccc(C#N)c(Cl)c4)CC3)cn2)CC1)[C@H]1C[C@H](Oc2ccc3c(c2)C(=O)N(C2CCC(=O)NC2=O)C3=O)C1 (stereo partly drawn) [Compound 55, N-((1r,4r)-4-(3-chloro-4-cyanophenoxy)cyclohexyl)-5-(4-((((1r,3r)-3-((2-(2,6-dioxopiperidin-3-yl)-1,3-dioxoisoindolin-5-yl)oxy)cyclobutyl)(1-methoxypropan-2-yl)amino)methyl)piperidin-1-yl)pyrazine-2-carboxamide]
< 1	COc1cc(O[C@H]2CC[C@H](NC(=O)c3cnc(N4CC5(CC(CN(C(C)C)[C@H]6C[C@H](Oc7ccc8c(c7)C(=O)N(C7CCC(=O)NC7=O)C8=O)C6)C5)C4)cn3)CC2)ccc1C#N (stereo partly drawn) [Compound 56, N-((1r,4r)-4-(4-cyano-3-methoxyphenoxy)cyclohexyl)-5-(6-((((1r,3r)-3-((2-(2,6-dioxopiperidin-3-yl)-1,3-dioxoisoindolin-5-yl)oxy)cyclobutyl) (isopropyl)amino)methyl)-2-azaspiro[3.3]heptan-2-yl)pyrazine-2-carboxamide]
< 1	COCCN(CC1CCN(c2cnc(C(=O)N[C@H]3CC[C@H](Oc4ccc(C#N)c(Cl)c4)CC3)cn2)CC1)[C@H]1C[C@H](Oc2ccc3c(c2)C(=O)N(C2CCC(=O)NC2=O)C3=O)C1 (stereo partly drawn) [Compound 58, N-((1r,4r)-4-(3-chloro-4-cyanophenoxy)cyclohexyl)-5-(4-((((1r,3r)-3-((2-(2,6-dioxopiperidin-3-yl)-1,3-dioxoisoindolin-5-yl)oxy)cyclobutyl)(2-methoxyethyl)amino)methyl)piperidin-1-yl)pyrazine-2-carboxamide]
< 1	N#Cc1ccc(O[C@H]2CC[C@H](NC(=O)c3cnc(N4CCC(CN(C5COC5)[C@H]5C[C@H](Oc6ccc7c(c6)C(=O)N(C6CCC(=O)NC6=O)C7=O)C5)CC4)cn3)CC2)cc1Cl (stereo partly drawn) [Compound 61, N-((1r,4r)-4-(3-chloro-4-cyanophenoxy)cyclohexyl)-5-(4-((((1r,3r)-3-((2-(2,6-dioxopiperidin-3-yl)-1,3-dioxoisoindolin-5-yl)oxy)cyclobutyl) (oxetan-3-yl)amino)methyl)piperidin-1-yl)pyrazine-2-carboxamide]
< 1	N#Cc1ccc(O[C@H]2CC[C@H](NC(=O)c3cnc(N4CCC(CN(C5CCOC5)[C@H]5C[C@H](Oc6ccc7c(c6)C(=O)N(C6CCC(=O)NC6=O)C7=O)C5)CC4)cn3)CC2)cc1Cl (stereo partly drawn) [Compound 62, N-((1r,4r)-4-(3-chloro-4-cyanophenoxy)cyclohexyl)-5-(4-((((1r,3r)-3-((2-(2,6-dioxopiperidin-3-yl)-1,3-dioxoisoindolin-5-yl)oxy)cyclobutyl) (tetrahydrofuran-3-yl)amino)methyl)piperidin-1-yl)pyrazine-2-carboxamide]
< 1	CCOc1cc(O[C@H]2CC[C@H](NC(=O)c3cnc(N4CCC(CN(C(C)C)[C@H]5C[C@H](Oc6ccc7c(c6)C(=O)N(C6CCC(=O)NC6=O)C7=O)C5)CC4)cn3)CC2)ccc1C#N (stereo partly drawn) [Compound 64, N-((1r,4r)-4-(4-cyano-3-ethoxyphenoxy)cyclohexyl)-5-(4-((((1r,3r)-3-((2-(2,6-dioxopiperidin-3-yl)-1,3-dioxoisoindolin-5-yl)oxy)cyclobutyl) (isopropyl)amino)methyl)piperidin-1-yl)pyrazine-2-carboxamide]
< 1	COCCN(CC1CCN(c2cnc(C(=O)N[C@H]3CC[C@H](Oc4ccc(C#N)c(OC)c4)CC3)cn2)CC1)[C@H]1C[C@H](Oc2ccc3c(c2)C(=O)N(C2CCC(=O)NC2=O)C3=O)C1 (stereo partly drawn) [Compound 68, N-((1r,4r)-4-(4-cyano-3-methoxyphenoxy)cyclohexyl)-5-(4-((((1r,3r)-3-((2-(2,6-dioxopiperidin-3-yl)-1,3-dioxoisoindolin-5-yl)oxy)cyclobutyl)(2-methoxyethyl)amino)methyl)piperidin-1-yl)pyrazine-2-carboxamide]
